In series [1] the test system is Bmal1-dLuc U2OS cells. Description: U2OS cell-based circadian assay (Bmal1-dLuc luminescence rhythms). Details: species or system human. To be noted: Bmal1-dLuc U2OS cells; for Period effect compared with longdaysin: Figure S10; for Effect on circadian period: various concentrations. On the procedure:
(§1) The compound screen was done with the high-throughput circadian assay system as described previously. In brief, Bmal1-dLuc U2OS cells were suspended in the culture medium (DMEM supplemented with 10% fetal bovine serum, 0.29 mg/ml L-glutamine, 100 units/ml penicillin, and 100 µg/ml streptomycin) and plated onto 384-well white solid-bottom plates at 20 µl (2,000 cells) per well. After 2 d, 50 µl of the explant medium (DMEM supplemented with 2% B27, 10 mM HEPES, 0.38 mg/ml sodium bicarbonate, 0.29 mg/ml L-glutamine, 100 units/ml penicillin, 100 µg/ml streptomycin, 0.1 mg/ml gentamicin, and 1 mM luciferin, pH 7.2) was dispensed to each well, followed by the application of 500 nl of compounds (dissolved in DMSO; final 0.7% DMSO). The plate was covered with an optically clear film and set to luminescence monitoring system equipped with a CCD imager (ViewLux, Perkin Elmer). The luminescence was recorded every 2 h for 3–4 days. In follow-up studies, the luminescence was recorded every 100 min by using a microplate reader (Infinite M200, Tecan). The period parameter was obtained from the luminescence rhythm by curve fitting program CellulaRhythm or MultiCycle (Actimetrics), both of which gave similar results.

The next series relates to cultured cells. Details: method as in PMID 16983144, PMID 15767683, PMID 17876059. To be noted: ref [14],[16]–[17]; cited from earlier work.
The subject of the next series is SCN explants. Details: method as in PMID 18448638. To be noted: ref [59]; cited from earlier work.
A further series deals with T1, CDK7 (Homo sapiens, UniProt P50613).
T1 construct: purchased Millipore 14-476
Description: In vitro kinase assay, CDK7. The class given is biochemical. The protocol: (§2) The CKIδ, CKIα, CDK7, and ERK2 kinase assays were performed on 384-well plates (10 µl volume). The reaction mixture was as follows: for CKIδ, 2 ng/µl CKIδ (Millipore, 14-520), 50 µM peptide substrate RKKKAEpSVASLTSQCSYSS corresponding to human PER2 Lys659-Ser674 [47], and CKI buffer (40 mM Tris, 10 mM MgCl2, 0.5 mM DTT, 0.1 mg/ml BSA, pH 7.5); for CKIα, 1 ng/µl CKIα (Invitrogen, PV3850), 50 µM CKI peptide substrate (Anaspec, 60547-1), and CKI buffer; for CDK7, 5 ng/µl CDK7 (Millipore, 14-476), 100 µM Cdk7/9 peptide substrate (Millipore, 12-526), and CKI buffer; for ERK2, 1.5 ng/µl ERK2 (Millipore, 14-550), 0.8 µg/µl MBP (Millipore, 13-104), and ERK buffer (50 mM Tris, 10 mM MgCl2, 0.5 mM DTT, 1 mM EGTA, pH 7.5). Five hundred nl of compound was added to the mixture (final 5% DMSO), and the reaction was started by adding ATP (final 5 µM). After incubation at 30°C for 3h, 10 µl of Kinase-Glo Luminescent Kinase Assay reagent (Promega) was added, and the luminescence was detected to determine remaining ATP amount. […] IC50 value was obtained by using Prism software (GraphPad Software).

Another series has as its target CKIδ (Homo sapiens, UniProt P48730). Description: In vitro kinase assay, CKIδ. The class given is biochemical. Set-up: purchased Millipore 14-520. The protocol:
as §2

A further series has as its target CKIα (Homo sapiens, UniProt P48729). Description: In vitro kinase assay, CKIα. The class given is biochemical. Set-up: purchased Invitrogen PV3850. On the procedure:
as §2

Another series addresses T2, ERK2 (Homo sapiens, UniProt P28482).
T2 construct: purchased Millipore 14-550
Description: In vitro kinase assay, ERK2. The class given is biochemical. On the procedure:
as §2

The test system of series [2] is Bmal1-dLuc U2OS cells. Description: Cytotoxicity in the U2OS circadian assay. The class given is cell-based, human. The protocol: as §1

The source of these data is paper PMC3001897, “High-Throughput Chemical Screen Identifies a Novel Potent Modulator of Cellular Circadian Rhythms and Reveals CKIα as a Clock Regulatory Kinase” (PLoS Biology, 2010).

pIC50: −log10 of the molar value.

The term pIC50 denotes the negative decadic logarithm of the IC50, by convention in mol/L. Read a high pIC50 as a low IC50.

Chain of CKIα (P48729 whole entry): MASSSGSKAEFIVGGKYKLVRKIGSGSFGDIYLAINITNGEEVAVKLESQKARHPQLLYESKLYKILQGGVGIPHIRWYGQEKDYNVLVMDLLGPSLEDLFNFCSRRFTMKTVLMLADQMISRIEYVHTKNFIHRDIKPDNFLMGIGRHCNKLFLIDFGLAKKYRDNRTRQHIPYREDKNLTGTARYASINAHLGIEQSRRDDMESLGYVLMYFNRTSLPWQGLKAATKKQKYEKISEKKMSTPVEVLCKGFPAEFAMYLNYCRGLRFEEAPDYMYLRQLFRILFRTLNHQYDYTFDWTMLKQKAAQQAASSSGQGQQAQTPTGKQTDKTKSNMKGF
Chain of CKIδ (P48730 whole entry, species assumed): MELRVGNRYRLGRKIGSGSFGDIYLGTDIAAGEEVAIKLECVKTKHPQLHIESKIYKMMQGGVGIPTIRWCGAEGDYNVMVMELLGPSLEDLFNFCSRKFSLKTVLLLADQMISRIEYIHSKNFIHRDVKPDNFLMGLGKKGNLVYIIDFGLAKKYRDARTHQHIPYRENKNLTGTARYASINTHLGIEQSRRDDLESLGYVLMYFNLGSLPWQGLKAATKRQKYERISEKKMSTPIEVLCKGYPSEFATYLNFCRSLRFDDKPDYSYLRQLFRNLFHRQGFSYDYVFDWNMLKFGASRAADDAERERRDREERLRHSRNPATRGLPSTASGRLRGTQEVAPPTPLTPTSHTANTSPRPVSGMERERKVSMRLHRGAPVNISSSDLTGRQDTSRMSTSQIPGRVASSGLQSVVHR
T2 sequence (P28482 whole entry, species assumed): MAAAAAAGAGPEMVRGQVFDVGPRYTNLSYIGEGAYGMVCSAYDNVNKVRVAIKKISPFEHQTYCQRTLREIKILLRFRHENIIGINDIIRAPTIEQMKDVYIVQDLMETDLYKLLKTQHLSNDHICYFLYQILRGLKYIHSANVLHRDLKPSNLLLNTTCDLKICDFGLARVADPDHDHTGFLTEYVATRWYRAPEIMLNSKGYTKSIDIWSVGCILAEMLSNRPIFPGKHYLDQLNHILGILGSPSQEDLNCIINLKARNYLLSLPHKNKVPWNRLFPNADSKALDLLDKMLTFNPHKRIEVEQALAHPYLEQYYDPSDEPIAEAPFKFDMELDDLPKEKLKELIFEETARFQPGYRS
T1 sequence (P50613 whole entry): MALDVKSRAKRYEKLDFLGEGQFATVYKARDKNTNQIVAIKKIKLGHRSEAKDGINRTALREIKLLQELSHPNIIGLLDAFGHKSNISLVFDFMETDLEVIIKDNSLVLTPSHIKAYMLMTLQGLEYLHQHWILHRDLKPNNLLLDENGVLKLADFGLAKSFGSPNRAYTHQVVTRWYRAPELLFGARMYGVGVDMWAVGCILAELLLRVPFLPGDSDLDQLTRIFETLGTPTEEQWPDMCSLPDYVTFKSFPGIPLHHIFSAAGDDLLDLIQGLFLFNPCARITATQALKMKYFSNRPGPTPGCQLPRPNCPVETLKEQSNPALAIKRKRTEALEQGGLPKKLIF
T1 sequence (P51946 whole entry partner): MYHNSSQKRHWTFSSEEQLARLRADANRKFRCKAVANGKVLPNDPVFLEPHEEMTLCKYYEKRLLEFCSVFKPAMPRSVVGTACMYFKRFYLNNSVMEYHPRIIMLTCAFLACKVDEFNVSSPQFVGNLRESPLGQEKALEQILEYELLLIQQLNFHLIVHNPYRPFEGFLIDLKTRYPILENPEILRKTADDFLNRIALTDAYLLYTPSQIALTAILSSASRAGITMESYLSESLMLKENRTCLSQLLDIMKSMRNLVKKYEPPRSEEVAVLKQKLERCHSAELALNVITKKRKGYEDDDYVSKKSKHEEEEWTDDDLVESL
T1 sequence (P51948 whole entry partner): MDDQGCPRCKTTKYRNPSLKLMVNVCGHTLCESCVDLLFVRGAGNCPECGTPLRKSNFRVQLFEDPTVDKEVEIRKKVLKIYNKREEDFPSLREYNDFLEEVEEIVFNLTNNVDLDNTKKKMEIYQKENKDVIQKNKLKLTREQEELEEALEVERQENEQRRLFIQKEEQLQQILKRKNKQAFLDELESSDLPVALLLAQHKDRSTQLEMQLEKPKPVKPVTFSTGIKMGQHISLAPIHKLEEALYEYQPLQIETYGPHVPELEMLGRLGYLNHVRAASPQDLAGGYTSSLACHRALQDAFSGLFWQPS

As to `COc1cc(OC)c(C=C2C(O)=Nc3ccccc32)c(OC)c1` [IC261, reference compound], the “Period effect compared with longdaysin” value in the series on Bmal1-dLuc U2OS cells [1] is given as “smaller period effects”. Also, the “Effect on period in cultured cells” value in the series with cultured cells is recorded as “period lengthening”.
Turning to `N#CC(=C(/N)Sc1ccccc1N)/C(C#N)=C(/N)Sc1ccccc1N` [Compound U0126], in the series with SCN explants, the “Effect on circadian rhythms in SCN explants” value was “Attenuation of the circadian rhythms”.
As for `NCCNS(=O)(=O)c1ccc(Cl)c2ccncc12` [CKI-7], the “Effect on period in cultured cells” value with cultured cells was “period lengthening”.
As for `CC(=O)NCCCCCCNc1nc(NCc2cccc(C(F)(F)F)c2)c2ncn(C(C)C)c2n1` [Compound 2, N-(6-(9-isopropyl-6-(3-(trifluoromethyl)benzylamino)-9H-purin-2-ylamino)hexyl)acetamide], the “Effect on circadian period” value in the series on Bmal1-dLuc U2OS cells [1] is on record as “retained the period lengthening effect”.
Regarding `CC(C)n1cnc2c(NCc3ccccc3)ncnc21` [Compound 1, N-benzyl-9-isopropyl-9H-purin-6-amine], the pIC50 against CDK7 (ATP 5 µM, from Figure 2E) was 4.54; at CKIδ (ATP 5 µM, from Figure 2E), 4.68; against CKIα (ATP 5 µM, from Figure 2E) it was 4.64; at ERK2 (ATP 5 µM, from Figure 2E) it was 3.80. Further, the “Inhibition of CDK7 compared with longdaysin” value at CDK7 (in vitro kinase assay) was “inhibited CDK7 similarly to longdaysin”. Moreover, in the series on Bmal1-dLuc U2OS cells [1], the “Effect on circadian period” value is reported as “strongly lengthened the period in a dose-dependent manner”. In addition, the “Concentration for period change, 5 h” value in the series on Bmal1-dLuc U2OS cells [1] (from Figure 1B) is 4.4 µM. For the same compound, the “Concentration for period change, 10 h” value in the series on Bmal1-dLuc U2OS cells [1] (from Figure 1B) was 17 µM. Besides, the “Concentration for period change, 15 h” value with Bmal1-dLuc U2OS cells [1] (from Figure 1B) is listed as 38 µM. Besides, the “Potency against CKIδ relative to longdaysin (times less)” value on CKIδ (in vitro kinase assay) is approximately 3 times. For the same compound, at CKIα (in vitro kinase assay), the “Potency against CKIα relative to longdaysin (times less)” value is listed as approximately 3 times. Besides, at ERK2 (in vitro kinase assay), the “Potency against ERK2 relative to longdaysin (times less)” value is approximately 3 times.
On to `NC(=O)c1ccc(-c2nc(-c3ccc4c(c3)OCCO4)c(-c3ccccn3)[nH]2)cc1` [Compound D4476, reference compound], for which the “Period effect compared with longdaysin” value with Bmal1-dLuc U2OS cells [1] is recorded as “smaller period effects”. The compound further came in with a Concentration showing cytotoxicity with Bmal1-dLuc U2OS cells [2] of 71 µM. Also, the “Effect on period in cultured cells” value in the series on cultured cells is recorded as “period lengthening”.
